{
  "source": "patent US8796289B2",
  "about": "(AbbVie Inc., priority 2011, dated 2014)",
  "data": [
    {"molecular_target": "GST-tagged-Wee1 kinase (Homo sapiens, UniProt P30291)", "sequence (P30291 whole entry)": "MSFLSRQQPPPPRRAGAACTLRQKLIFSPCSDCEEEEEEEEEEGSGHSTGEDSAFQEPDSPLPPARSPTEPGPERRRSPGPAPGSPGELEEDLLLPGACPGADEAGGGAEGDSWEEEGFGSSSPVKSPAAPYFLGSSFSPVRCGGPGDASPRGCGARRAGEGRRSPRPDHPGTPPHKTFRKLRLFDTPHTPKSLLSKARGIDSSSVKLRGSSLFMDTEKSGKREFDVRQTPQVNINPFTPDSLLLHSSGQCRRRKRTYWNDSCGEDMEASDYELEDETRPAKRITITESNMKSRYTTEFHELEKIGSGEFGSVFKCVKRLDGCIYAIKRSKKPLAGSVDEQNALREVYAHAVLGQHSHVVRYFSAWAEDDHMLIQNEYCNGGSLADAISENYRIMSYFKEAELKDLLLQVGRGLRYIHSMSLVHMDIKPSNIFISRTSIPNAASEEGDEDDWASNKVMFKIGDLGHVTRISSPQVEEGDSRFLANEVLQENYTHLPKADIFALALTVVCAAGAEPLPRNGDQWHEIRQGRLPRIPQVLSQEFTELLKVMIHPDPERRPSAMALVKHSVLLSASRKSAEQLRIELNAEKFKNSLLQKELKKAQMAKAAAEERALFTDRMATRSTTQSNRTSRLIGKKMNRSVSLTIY", "assay": "Wee1 time-resolved fluorescence equilibrium binding assay (displacement of Oregon Green-labeled ATP-competitive kinase probe)", "procedure": "Wee1 kinase was assayed using a time-resolved fluorescence equilibrium binding assay monitoring displacement of a rapidly reversible Oregon Green-labeled ATP-competitive kinase probe (N-(2-(2-(2-(4-(4-(5-chloro-4-(2-(1-hydroxycyclobutyl)thiazol-5-yl)-1H-pyrrolo[2,3-b]pyridin-2-yl)phenyl)piperazin-1-yl)ethoxy)ethoxy)ethyl)-2′,7′-difluoro-3′,6′-dihydroxy-3-oxo-3H-spiro[isobenzofuran-1,9′-xanthene]-5-carboxamide) by competitive Wee1 inhibitors.", "units": {"Ki": "nM"}, "values": [
      {"smiles": "CC(=O)N1Cc2cc(Nc3ncc4c(=O)n(-c5c(Cl)cccc5Cl)nc(C)c4n3)ccc2C2(CC2)C1", "note": "[Example 417, 2-[(2′-acetyl-2′,3′-dihydro-1′H-spiro[cyclopropane-1,4′-isoquinolin]-7′-yl)amino]-6-(2,6-dichlorophenyl)-8-methylpyrimido[4,5-d]pyridazin-5(6H)-one]", "Ki": 0.31},
      {"smiles": "O=c1c2cnc(Nc3ccc(N4CCNCC4)cc3)nc2c(C(F)(F)F)nn1-c1c(Cl)cccc1Cl", "note": "[Example 418, 6-(2,6-dichlorophenyl)-2-{[4-(piperazin-1-yl)phenyl]amino}-8-(trifluoromethyl)pyrimido[4,5-d]pyridazin-5(6H)-one]", "Ki": 0.35},
      {"smiles": "CN1CCN(c2ccc(Nc3ncc4c(=O)n(-c5c(Cl)cccc5Cl)nc(CF)c4n3)cc2)CC1", "note": "[Example 419, 6-(2,6-dichlorophenyl)-8-(fluoromethyl)-2-{[4-(4-methylpiperazin-1-yl)phenyl]amino}pyrimido[4,5-d]pyridazin-5(6H)-one]", "Ki": 0.19},
      {"smiles": "O=c1c2cnc(Nc3ccc4c(c3)CNCC43CC3)nc2c(C(F)(F)F)nn1-c1c(Cl)cccc1Cl", "note": "[Example 420, 6-(2,6-dichlorophenyl)-2-(2′,3′-dihydro-1′H-spiro[cyclopropane-1,4′-isoquinolin]-7′-ylamino)-8-(trifluoromethyl)pyrimido[4,5-d]pyridazin-5(6H)-one]", "Ki": 0.45},
      {"smiles": "O=c1c2cnc(Nc3ccc4c(c3)CNCC4)nc2c(C(F)(F)F)nn1-c1c(Cl)cccc1Cl", "note": "[Example 421, 6-(2,6-dichlorophenyl)-2-(1,2,3,4-tetrahydroisoquinolin-7-ylamino)-8-(trifluoromethyl)pyrimido[4,5-d]pyridazin-5(6H)-one]", "Ki": 0.5},
      {"smiles": "O=c1c2cnc(Nc3ccc(C4CCNC4)cc3)nc2c(C(F)(F)F)nn1-c1c(Cl)cccc1Cl", "note": "(centres unmarked) [Example 422, 6-(2,6-dichlorophenyl)-2-{[4-(pyrrolidin-3-yl)phenyl]amino}-8-(trifluoromethyl)pyrimido[4,5-d]pyridazin-5(6H)-one]", "Ki": 0.4},
      {"smiles": "COCc1nn(-c2c(Cl)cccc2Cl)c(=O)c2cnc(Nc3ccc(N4CCN(C)CC4)cc3)nc12", "note": "[Example 423, 6-(2,6-dichlorophenyl)-8-(methoxymethyl)-2-{[4-(4-methylpiperazin-1-yl)phenyl]amino}pyrimido[4,5-d]pyridazin-5(6H)-one]", "Ki": 0.7},
      {"smiles": "COCc1nn(-c2c(Cl)cccc2Cl)c(=O)c2cnc(Nc3ccc(N4CCNCC4)cc3)nc12", "note": "[Example 424, 6-(2,6-dichlorophenyl)-8-(methoxymethyl)-2-{[4-(piperazin-1-yl)phenyl]amino}pyrimido[4,5-d]pyridazin-5(6H)-one]", "Ki": 0.4},
      {"smiles": "Cc1nn(-c2c(Cl)cccc2Cl)c(=O)c2cnc(Nc3ccc(N4CCC(N(C)C)CC4)cc3)nc12", "note": "[Example 425, 6-(2,6-dichlorophenyl)-2-({4-[4-(dimethylamino)piperidin-1-yl]phenyl}amino)-8-methylpyrimido[4,5-d]pyridazin-5(6H)-one]", "Ki": 0.19},
      {"smiles": "Cc1nn(-c2c(Cl)cccc2Cl)c(=O)c2cnc(Nc3ccc4c(c3)CN(C(=O)CO)CC43CC3)nc12", "note": "[Example 426, 6-(2,6-dichlorophenyl)-2-{[2′-(hydroxyacetyl)-2′,3′-dihydro-1′H-spiro[cyclopropane-1,4′-isoquinolin]-7′-yl]amino}-8-methylpyrimido[4,5-d]pyridazin-5(6H)-one]", "Ki": 0.11},
      {"smiles": "Cc1nn(-c2c(Cl)cccc2Cl)c(=O)c2cnc(Nc3ccc4c(c3)CN(S(C)(=O)=O)CC43CC3)nc12", "note": "[Example 427, 6-(2,6-dichlorophenyl)-8-methyl-2-{[2′-(methylsulfonyl)-2′,3′-dihydro-1′H-spiro[cyclopropane-1,4′-isoquinolin]-7′-yl]amino}pyrimido[4,5-d]pyridazin-5(6H)-one]", "Ki": 0.91},
      {"smiles": "COCc1nn(-c2c(Cl)cccc2Cl)c(=O)c2cnc(Nc3ccc4c(c3)CNCC43CC3)nc12", "note": "[Example 428, 6-(2,6-dichlorophenyl)-2-(2′,3′-dihydro-1′H-spiro[cyclopropane-1,4′-isoquinolin]-7′-ylamino)-8-(methoxymethyl)pyrimido[4,5-d]pyridazin-5(6H)-one]", "Ki": 0.24},
      {"smiles": "COCc1nn(-c2c(Cl)cccc2Cl)c(=O)c2cnc(Nc3ccc4c(c3)CN(C)CC43CC3)nc12", "note": "[Example 429, 6-(2,6-dichlorophenyl)-8-(methoxymethyl)-2-[(2′-methyl-2′,3′-dihydro-1′H-spiro[cyclopropane-1,4′-isoquinolin]-7′-yl)amino]pyrimido[4,5-d]pyridazin-5(6H)-one]", "Ki": 0.48},
      {"smiles": "O=c1c2cnc(Nc3ccc(N4CCNCC4)cc3)nc2c(CO)nn1-c1c(Cl)cccc1Cl", "note": "[Example 430, 6-(2,6-dichlorophenyl)-8-(hydroxymethyl)-2-{[4-(piperazin-1-yl)phenyl]amino}pyrimido[4,5-d]pyridazin-5(6H)-one]", "Ki": 0.2},
      {"smiles": "CN1CCN(c2ccc(Nc3ncc4c(=O)n(-c5c(Cl)cccc5Cl)nc(CO)c4n3)cc2)CC1", "note": "[Example 431, 6-(2,6-dichlorophenyl)-8-(hydroxymethyl)-2-{[4-(4-methylpiperazin-1-yl)phenyl]amino}pyrimido[4,5-d]pyridazin-5(6H)-one]", "Ki": 0.42},
      {"smiles": "CN1Cc2cc(Nc3ncc4c(=O)n(-c5c(Cl)cccc5Cl)nc(CO)c4n3)ccc2C2(CC2)C1", "note": "[Example 432, 6-(2,6-dichlorophenyl)-8-(hydroxymethyl)-2-[(2′-methyl-2′,3′-dihydro-1′H-spiro[cyclopropane-1,4′-isoquinolin]-7′-yl)amino]pyrimido[4,5-d]pyridazin-5(6H)-one]", "Ki": 0.2},
      {"smiles": "O=c1c2cnc(Nc3ccc4c(c3)CNCC43CC3)nc2c(CO)nn1-c1c(Cl)cccc1Cl", "note": "[Example 433, 6-(2,6-dichlorophenyl)-2-(2′,3′-dihydro-1′H-spiro[cyclopropane-1,4′-isoquinolin]-7′-ylamino)-8-(hydroxymethyl)pyrimido[4,5-d]pyridazin-5(6H)-one]", "Ki": 0.15},
      {"smiles": "Cc1nn(-c2c(Cl)cccc2Cl)c(=O)c2cnc(Nc3ccc4c(c3)CCN(C)C4)nc12", "note": "[Example 435, 6-(2,6-dichlorophenyl)-8-methyl-2-[(2-methyl-1,2,3,4-tetrahydroisoquinolin-6-yl)amino]pyrimido[4,5-d]pyridazin-5(6H)-one]", "Ki": 0.46},
      {"smiles": "Cc1nn(-c2c(Cl)cccc2Cl)c(=O)c2cnc(Nc3ccc4c(c3)CN(S(N)(=O)=O)CC43CC3)nc12", "note": "[Example 436, 7′-{[6-(2,6-dichlorophenyl)-8-methyl-5-oxo-5,6-dihydropyrimido[4,5-d]pyridazin-2-yl]amino}-1′H-spiro[cyclopropane-1,4′-isoquinoline]-2′(3′H)-sulfonamide]", "Ki": 0.65},
      {"smiles": "Cc1nn(-c2c(Cl)cccc2Cl)c(=O)c2cnc(Nc3ccc4c(c3)CCN(C(=O)C(C)(C)O)C4)nc12", "note": "[Example 437, 6-(2,6-dichlorophenyl)-2-{[2-(2-hydroxy-2-methylpropanoyl)-1,2,3,4-tetrahydroisoquinolin-6-yl]amino}-8-methylpyrimido[4,5-d]pyridazin-5(6H)-one]", "Ki": 0.8},
      {"smiles": "Cc1nn(-c2c(Cl)cccc2Cl)c(=O)c2cnc(Nc3ccc4c(c3)CNCC4(C)C)nc12", "note": "[Example 438, 6-(2,6-dichlorophenyl)-2-[(4,4-dimethyl-1,2,3,4-tetrahydroisoquinolin-7-yl)amino]-8-methylpyrimido[4,5-d]pyridazin-5(6H)-one]", "Ki": 0.18},
      {"smiles": "CC(=O)N1Cc2cc(Nc3ncc4c(=O)n(-c5c(Cl)cccc5Cl)nc(C)c4n3)ccc2C(C)(C)C1", "note": "[Example 439, 2-[(2-acetyl-4,4-dimethyl-1,2,3,4-tetrahydroisoquinolin-7-yl)amino]-6-(2,6-dichlorophenyl)-8-methylpyrimido[4,5-d]pyridazin-5(6H)-one]", "Ki": 0.69},
      {"smiles": "Cc1nn(-c2c(Cl)cccc2Cl)c(=O)c2cnc(Nc3ccc4c(c3)CN(C(=O)C3CC3)CC4(C)C)nc12", "note": "[Example 440, 2-{[2-(cyclopropylcarbonyl)-4,4-dimethyl-1,2,3,4-tetrahydroisoquinolin-7-yl]amino}-6-(2,6-dichlorophenyl)-8-methylpyrimido[4,5-d]pyridazin-5(6H)-one]", "Ki": 0.82},
      {"smiles": "Cc1nn(-c2c(Cl)cccc2Cl)c(=O)c2cnc(Nc3ccc4c(c3)CN(S(C)(=O)=O)CC4(C)C)nc12", "note": "[Example 441, 6-(2,6-dichlorophenyl)-2-{[4,4-dimethyl-2-(methylsulfonyl)-1,2,3,4-tetrahydroisoquinolin-7-yl]amino}-8-methylpyrimido[4,5-d]pyridazin-5(6H)-one]", "Ki": 0.72},
      {"smiles": "Cc1nn(-c2c(Cl)cccc2Cl)c(=O)c2cnc(Nc3ccc(N4CCNC(=O)C4)cc3)nc12", "note": "[Example 442, 6-(2,6-dichlorophenyl)-8-methyl-2-{[4-(3-oxopiperazin-1-yl)phenyl]amino}pyrimido[4,5-d]pyridazin-5(6H)-one]", "Ki": 0.46},
      {"smiles": "Cc1nn(-c2c(Cl)cccc2Cl)c(=O)c2cnc(Nc3ccc4c(c3)C(C)(C)N(C)CC4)nc12", "note": "[Example 443, 6-(2,6-dichlorophenyl)-8-methyl-2-[(1,1,2-trimethyl-1,2,3,4-tetrahydroisoquinolin-7-yl)amino]pyrimido[4,5-d]pyridazin-5(6H)-one]", "Ki": 0.3},
      {"smiles": "Cc1nn(-c2c(Cl)cccc2Cl)c(=O)c2cnc(Nc3ccc4c(c3)C(C)(C)NCC4)nc12", "note": "[Example 444, 6-(2,6-dichlorophenyl)-2-[(1,1-dimethyl-1,2,3,4-tetrahydroisoquinolin-7-yl)amino]-8-methylpyrimido[4,5-d]pyridazin-5(6H)-one]", "Ki": 0.16},
      {"smiles": "Cc1nn(-c2c(Cl)cccc2Cl)c(=O)c2cnc(Nc3ccc(N4CCN(C5COC5)CC4)cc3)nc12", "note": "[Example 445, 6-(2,6-dichlorophenyl)-8-methyl-2-({4-[4-(oxetan-3-yl)piperazin-1-yl]phenyl}amino)pyrimido[4,5-d]pyridazin-5(6H)-one]", "Ki": 0.33},
      {"smiles": "Cc1nn(-c2c(Cl)cccc2Cl)c(=O)c2cnc(Nc3ccc(N4CC5CNCC5C4)cc3)nc12", "note": "(centres unmarked) [Example 446, 6-(2,6-dichlorophenyl)-2-{[4-(hexahydropyrrolo[3,4-c]pyrrol-2(1H)-yl)phenyl]amino}-8-methylpyrimido[4,5-d]pyridazin-5(6H)-one]", "Ki": 0.27}
    ]}
  ]
}
